Data reported in ChEMBL document CHEMBL5649170, “Sustained microglial depletion with CSF1R inhibitor impairs parenchymal plaque development in an Alzheimer's disease model” (Nat Commun, 2019).
Active and inactive are the calls of the source. The rule behind the calls is not given here.

Legend:
[1] = molecular target: MAP kinase-activated protein kinase 3 (Homo sapiens, UniProt Q16644); assay: Inhibition of MAPKAPK3 (unknown origin)
[2] = Effect on Itgax gene expression in wild type mouse hippocampus at 1200 ppm administered as rodent chow starting from 1.5 months and measured after 7 months by RNA-Seq analysis (reference value: 0.057 to 0.109 RPKM); assay type: functional; settings: route po, time 5.5 months, 4015 h
[3] = molecular target: Serine/threonine-protein kinase Sgk2 (Homo sapiens, UniProt Q9HBY8); assay: Inhibition of SGK2 (unknown origin)
Mus musculus [4] = assay: Effect on circulating leukocytes in wildtype mouse assessed as percentage of CD45+/PI- cells expressing CD11c at 1200 ppm administered as rodent chow for 10 to 24 weeks (reference value: 4.18 to 10.2 %); assay type: functional; settings: route po, time 10-24 weeks
[5] = molecular target: Calcium/calmodulin-dependent protein kinase type IV (Homo sapiens, UniProt Q16566); assay: Inhibition of CAMK4 (unknown origin)
[6] = molecular target: Serine/threonine-protein kinase Nek1 (Homo sapiens, UniProt Q96PY6); assay: Inhibition of NEK1 (unknown origin)
Serine/threonine-protein kinase Nek1, sequence (Q96PY6 whole entry): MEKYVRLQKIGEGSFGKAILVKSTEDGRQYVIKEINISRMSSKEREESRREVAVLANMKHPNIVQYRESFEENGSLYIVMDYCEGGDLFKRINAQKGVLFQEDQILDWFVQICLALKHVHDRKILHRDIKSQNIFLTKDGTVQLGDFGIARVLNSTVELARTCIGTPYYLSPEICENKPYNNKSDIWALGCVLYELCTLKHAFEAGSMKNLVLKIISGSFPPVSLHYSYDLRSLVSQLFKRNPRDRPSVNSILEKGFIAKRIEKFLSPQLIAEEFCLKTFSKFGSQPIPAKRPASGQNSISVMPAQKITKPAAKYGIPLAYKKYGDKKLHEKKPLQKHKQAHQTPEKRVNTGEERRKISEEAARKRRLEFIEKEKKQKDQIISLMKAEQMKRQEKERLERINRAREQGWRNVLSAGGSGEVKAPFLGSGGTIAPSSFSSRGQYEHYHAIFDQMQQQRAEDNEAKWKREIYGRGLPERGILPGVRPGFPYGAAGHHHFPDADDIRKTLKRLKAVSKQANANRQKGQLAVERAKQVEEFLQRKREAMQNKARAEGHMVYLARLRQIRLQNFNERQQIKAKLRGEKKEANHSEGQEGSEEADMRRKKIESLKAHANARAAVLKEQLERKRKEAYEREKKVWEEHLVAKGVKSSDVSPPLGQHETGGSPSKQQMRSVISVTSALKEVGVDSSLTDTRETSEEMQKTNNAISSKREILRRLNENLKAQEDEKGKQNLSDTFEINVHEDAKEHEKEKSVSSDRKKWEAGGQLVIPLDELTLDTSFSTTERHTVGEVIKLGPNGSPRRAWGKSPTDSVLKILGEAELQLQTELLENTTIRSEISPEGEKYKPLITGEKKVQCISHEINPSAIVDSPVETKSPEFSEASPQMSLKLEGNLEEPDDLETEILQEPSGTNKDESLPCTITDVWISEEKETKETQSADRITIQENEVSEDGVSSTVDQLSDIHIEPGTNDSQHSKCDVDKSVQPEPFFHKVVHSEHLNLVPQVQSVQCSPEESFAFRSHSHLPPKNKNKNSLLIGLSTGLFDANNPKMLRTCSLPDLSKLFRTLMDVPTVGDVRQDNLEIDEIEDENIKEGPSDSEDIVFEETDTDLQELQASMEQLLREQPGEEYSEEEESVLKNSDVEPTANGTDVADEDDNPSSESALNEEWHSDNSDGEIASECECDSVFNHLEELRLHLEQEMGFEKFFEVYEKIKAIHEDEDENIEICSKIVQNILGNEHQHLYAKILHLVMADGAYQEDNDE

[7] = Effect on Dusp5 gene expression in wildtype mouse hippocampus assessed as percent change in Reads Per kilo base per Million mapped reads at 1200 ppm administered as rodent chow starting from 1.5 months and measured after 7 months by RNA-Seq analysis (reference value: 75.632 to 114.605 %); assay type: functional; settings: route po, time 5.5 months, 4015 h
[8] = Toxicity in wildtype mouse assessed as time spent in perimeter zone at 1200 ppm administered as rodent chow for 10 to 24 weeks by Open field test (reference value: 223.8 to 267.6 sec); settings: in vivo, po, time 10-24 weeks
[9] = Effect on St8sia5 gene expression in wildtype mouse hippocampus assessed as percent change in Reads Per kilo base per Million mapped reads at 1200 ppm administered as rodent chow starting from 1.5 months and measured after 7 months by RNA-Seq analysis (reference value: 83.570 to 112.150 %); assay type: functional; settings: route po, time 5.5 months, 4015 h
Rhodopsin kinase GRK7 = Rhodopsin kinase GRK7 (Homo sapiens, UniProt Q8WTQ7); assay: Inhibition of GRK7 (unknown origin)
Rhodopsin kinase GRK7, sequence (Q8WTQ7 whole entry): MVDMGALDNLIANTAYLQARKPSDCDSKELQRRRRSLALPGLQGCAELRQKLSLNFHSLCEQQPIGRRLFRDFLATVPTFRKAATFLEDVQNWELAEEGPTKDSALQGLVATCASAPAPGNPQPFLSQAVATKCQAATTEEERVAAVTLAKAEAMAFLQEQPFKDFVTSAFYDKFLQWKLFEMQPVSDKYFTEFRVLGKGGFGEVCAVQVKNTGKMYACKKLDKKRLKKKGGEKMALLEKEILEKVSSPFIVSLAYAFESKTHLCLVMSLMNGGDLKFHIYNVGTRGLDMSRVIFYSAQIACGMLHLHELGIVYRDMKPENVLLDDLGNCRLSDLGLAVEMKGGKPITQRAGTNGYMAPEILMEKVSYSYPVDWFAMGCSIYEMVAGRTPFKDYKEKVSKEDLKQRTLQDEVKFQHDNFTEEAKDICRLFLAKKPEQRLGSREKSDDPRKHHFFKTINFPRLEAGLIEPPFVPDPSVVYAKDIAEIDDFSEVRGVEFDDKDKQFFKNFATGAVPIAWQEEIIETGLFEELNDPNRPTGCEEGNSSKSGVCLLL

Mus musculus [10] = assay: Antialzheimer activity in 5XFAD mouse assessed as number of Thio-S positive plaques per FOV in […] cortex at 1200 ppm administered as rodent chow starting from 1.5 months and measured after 4 months by Thio-S staining based confocal microscopic analysis (reference value: 63 to 124); assay type: functional; settings: route po, time 2.5 months, 1825 h
[11] = Effect on Ctsz gene expression in 5XFAD mouse cortex at 1200 ppm administered as rodent chow starting from 1.5 months and measured after 7 months by RNA-Seq analysis (reference value: 27.650 to 42.003 RPKM); assay type: functional; settings: route po, time 5.5 months, 4015 h
[12] = molecular target: Serine/threonine-protein kinase D2 (Homo sapiens, UniProt Q9BZL6); assay: Inhibition of PRKD2 (unknown origin)
Serine/threonine-protein kinase D2, sequence (Q9BZL6 whole entry): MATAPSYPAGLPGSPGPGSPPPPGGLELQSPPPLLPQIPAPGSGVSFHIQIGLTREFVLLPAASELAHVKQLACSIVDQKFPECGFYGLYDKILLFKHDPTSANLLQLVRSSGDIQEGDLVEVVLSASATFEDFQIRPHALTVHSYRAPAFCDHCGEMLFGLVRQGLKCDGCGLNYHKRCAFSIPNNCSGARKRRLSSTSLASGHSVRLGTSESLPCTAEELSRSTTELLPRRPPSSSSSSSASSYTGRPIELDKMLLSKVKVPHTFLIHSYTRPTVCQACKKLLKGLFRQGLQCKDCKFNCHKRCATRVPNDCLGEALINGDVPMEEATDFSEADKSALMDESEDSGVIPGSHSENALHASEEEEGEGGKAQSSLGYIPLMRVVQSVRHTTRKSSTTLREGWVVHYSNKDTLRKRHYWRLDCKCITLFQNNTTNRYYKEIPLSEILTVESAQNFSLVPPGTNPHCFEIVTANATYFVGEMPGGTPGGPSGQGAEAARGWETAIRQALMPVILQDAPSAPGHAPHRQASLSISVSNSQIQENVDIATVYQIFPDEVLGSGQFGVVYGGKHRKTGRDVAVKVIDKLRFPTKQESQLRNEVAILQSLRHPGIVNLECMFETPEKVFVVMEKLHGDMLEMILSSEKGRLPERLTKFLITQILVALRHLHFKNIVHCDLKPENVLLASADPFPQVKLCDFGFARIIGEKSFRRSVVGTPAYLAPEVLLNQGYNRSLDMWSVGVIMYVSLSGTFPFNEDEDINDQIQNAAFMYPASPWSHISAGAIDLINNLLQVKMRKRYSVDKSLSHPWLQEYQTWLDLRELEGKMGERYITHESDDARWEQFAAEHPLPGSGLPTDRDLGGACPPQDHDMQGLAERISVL

Mus musculus [13] = assay: Antialzheimer activity in 5XFAD mouse assessed as number of S100bteta positive cells per FOV in […] cortex at 1200 ppm administered as rodent chow for 10 to 24 weeks by immunolabelling based confocal microscopic analysis (reference value: 320 to 427); assay type: functional; settings: route po, time 10-24 weeks
[14] = molecular target: Fibroblast growth factor receptor 2 (Homo sapiens, UniProt P21802); assay: Inhibition of FGFR2 (unknown origin)
Fibroblast growth factor receptor 2, sequence (P21802 whole entry): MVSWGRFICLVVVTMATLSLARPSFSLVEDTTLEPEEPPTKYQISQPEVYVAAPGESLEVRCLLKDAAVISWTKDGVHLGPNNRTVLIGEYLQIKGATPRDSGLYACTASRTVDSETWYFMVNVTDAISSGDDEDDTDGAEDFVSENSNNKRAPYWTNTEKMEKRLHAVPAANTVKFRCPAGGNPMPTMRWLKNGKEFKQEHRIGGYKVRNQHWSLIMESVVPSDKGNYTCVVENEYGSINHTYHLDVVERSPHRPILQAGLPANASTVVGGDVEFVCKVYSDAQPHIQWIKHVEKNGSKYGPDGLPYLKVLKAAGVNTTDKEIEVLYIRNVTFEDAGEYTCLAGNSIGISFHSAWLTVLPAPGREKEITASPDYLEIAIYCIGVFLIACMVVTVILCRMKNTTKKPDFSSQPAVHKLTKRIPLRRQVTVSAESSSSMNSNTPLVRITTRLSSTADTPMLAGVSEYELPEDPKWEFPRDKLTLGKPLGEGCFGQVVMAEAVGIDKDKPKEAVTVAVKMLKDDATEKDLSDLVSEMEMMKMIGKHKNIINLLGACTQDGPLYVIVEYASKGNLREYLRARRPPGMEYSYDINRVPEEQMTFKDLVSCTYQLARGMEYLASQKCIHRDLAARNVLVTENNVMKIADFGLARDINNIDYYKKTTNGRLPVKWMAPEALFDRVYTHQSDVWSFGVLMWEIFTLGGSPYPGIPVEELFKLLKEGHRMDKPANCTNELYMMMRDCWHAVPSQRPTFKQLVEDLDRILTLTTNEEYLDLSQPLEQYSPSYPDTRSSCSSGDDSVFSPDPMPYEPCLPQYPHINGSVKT

[15] = Toxicity in wildtype mouse assessed as time spent in center zone at 1200 ppm administered as rodent chow for 10 to 24 weeks by Open field test (reference value: 32.4 to 76.1 sec); settings: in vivo, po, time 10-24 weeks
[16] = molecular target: Phosphorylase b kinase gamma catalytic chain, skeletal muscle/heart isoform (Homo sapiens, UniProt Q16816); assay: Inhibition of PHKG1 (unknown origin)
Phosphorylase b kinase gamma catalytic chain, skeletal muscle/heart isoform, sequence (Q16816 whole entry, canonical isoform): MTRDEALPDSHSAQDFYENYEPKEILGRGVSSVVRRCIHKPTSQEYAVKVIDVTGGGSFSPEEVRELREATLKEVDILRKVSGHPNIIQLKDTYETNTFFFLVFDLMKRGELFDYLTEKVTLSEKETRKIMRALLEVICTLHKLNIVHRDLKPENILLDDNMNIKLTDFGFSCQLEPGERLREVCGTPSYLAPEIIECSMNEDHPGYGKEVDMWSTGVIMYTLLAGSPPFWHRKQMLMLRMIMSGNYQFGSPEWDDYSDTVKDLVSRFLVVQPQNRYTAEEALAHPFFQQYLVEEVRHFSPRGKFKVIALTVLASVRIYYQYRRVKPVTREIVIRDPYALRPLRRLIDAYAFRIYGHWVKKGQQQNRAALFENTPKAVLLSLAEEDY

[17] = molecular target: Serine/threonine-protein kinase PAK 2 (Homo sapiens, UniProt Q13177); assay: Inhibition of PAK2 (unknown origin)
Serine/threonine-protein kinase PAK 2, sequence (Q13177 whole entry): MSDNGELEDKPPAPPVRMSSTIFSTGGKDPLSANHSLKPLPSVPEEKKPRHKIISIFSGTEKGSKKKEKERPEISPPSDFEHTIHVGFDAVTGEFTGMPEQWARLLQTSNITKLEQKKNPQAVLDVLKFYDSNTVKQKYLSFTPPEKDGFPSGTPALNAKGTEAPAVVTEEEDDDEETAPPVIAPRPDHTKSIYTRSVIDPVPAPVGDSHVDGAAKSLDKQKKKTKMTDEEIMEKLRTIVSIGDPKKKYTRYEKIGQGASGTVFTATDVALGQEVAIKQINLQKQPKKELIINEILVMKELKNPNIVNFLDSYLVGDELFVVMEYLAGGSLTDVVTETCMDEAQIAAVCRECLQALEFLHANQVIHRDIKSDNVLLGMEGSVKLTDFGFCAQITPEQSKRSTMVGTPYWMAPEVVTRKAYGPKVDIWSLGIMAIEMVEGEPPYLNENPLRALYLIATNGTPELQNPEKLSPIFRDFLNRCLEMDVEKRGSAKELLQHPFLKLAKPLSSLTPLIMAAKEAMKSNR

[18] = Half-life in mouse at 1.92 mg/kg, iv administered as single dose; assay type: ADME, organism-based; settings: in vivo
[19] = Volume of distribution at steady state in male rat at 1.13 mg/kg, iv administered as single dose; assay type: ADME, organism-based; settings: in vivo, read-out: Vdss
Mus musculus [20] = assay: Antialzheimer activity in mouse harboring CX3CR1-GFP+/- assessed as microglial elimination in brain at 600 ppm administered as chow for 7 days relative to control; assay type: functional; settings: route po, time 7 day
[21] = molecular target: T1, Macrophage colony-stimulating factor 1 receptor (Mus musculus) (UniProt P09581); assay: In vivo inhibition of CSF1R in 5XFAD mouse assessed as reduction in plaque pathology in […] cortex at 600 ppm administered as rodent chow starting from 1.5 months and measured after 5 months by immunolabeling based confocal microscopic analysis; settings: route po, time 3.5 months
T1 sequence (whole entry): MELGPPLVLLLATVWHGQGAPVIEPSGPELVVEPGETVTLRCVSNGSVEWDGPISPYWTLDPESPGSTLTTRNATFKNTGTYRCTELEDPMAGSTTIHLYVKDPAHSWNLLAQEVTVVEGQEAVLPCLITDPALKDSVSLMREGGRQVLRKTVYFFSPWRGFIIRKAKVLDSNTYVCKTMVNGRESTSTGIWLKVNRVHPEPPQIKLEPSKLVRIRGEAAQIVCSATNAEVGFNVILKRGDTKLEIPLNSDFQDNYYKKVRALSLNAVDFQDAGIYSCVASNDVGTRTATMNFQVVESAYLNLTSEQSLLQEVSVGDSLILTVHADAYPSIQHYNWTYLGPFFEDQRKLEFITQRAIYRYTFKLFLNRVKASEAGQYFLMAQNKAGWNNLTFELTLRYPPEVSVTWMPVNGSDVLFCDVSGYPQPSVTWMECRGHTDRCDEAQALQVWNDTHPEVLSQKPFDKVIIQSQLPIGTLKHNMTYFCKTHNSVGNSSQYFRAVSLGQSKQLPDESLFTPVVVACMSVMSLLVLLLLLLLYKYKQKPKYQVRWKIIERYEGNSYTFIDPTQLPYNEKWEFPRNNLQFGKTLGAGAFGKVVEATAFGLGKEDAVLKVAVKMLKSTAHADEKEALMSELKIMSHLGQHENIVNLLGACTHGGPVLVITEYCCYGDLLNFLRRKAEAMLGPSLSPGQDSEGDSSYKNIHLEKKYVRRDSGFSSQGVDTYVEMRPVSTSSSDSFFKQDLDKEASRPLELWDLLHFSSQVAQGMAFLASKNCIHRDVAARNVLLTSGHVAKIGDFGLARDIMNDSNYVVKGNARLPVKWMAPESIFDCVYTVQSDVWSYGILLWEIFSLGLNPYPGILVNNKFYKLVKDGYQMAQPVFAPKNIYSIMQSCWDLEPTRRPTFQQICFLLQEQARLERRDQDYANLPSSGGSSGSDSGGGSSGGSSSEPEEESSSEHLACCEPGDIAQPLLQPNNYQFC

MAP kinase-activated protein kinase 3, sequence (Q16644 whole entry): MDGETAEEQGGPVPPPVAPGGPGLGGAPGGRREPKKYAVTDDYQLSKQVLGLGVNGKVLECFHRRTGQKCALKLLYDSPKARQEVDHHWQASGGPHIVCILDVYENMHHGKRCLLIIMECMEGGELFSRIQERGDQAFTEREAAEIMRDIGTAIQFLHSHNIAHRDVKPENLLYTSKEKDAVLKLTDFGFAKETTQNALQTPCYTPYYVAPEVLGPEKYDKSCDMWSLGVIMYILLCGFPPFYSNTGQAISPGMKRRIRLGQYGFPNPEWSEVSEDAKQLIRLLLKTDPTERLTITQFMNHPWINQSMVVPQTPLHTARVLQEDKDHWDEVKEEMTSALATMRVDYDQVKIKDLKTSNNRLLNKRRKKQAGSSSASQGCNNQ

## COc1ncc(F)cc1CNc1ccc(Cc2c[nH]c3ncc(C)cc23)c(F)n1 [PLX-5622]
[1]
  IC50: > 1 µM
[2]
  Activity: 0 RPKM
[3]
  IC50: > 1 µM
Mus musculus [4]
  Activity: 3.32%
[5]
  IC50: > 1 µM
[6]
  IC50: > 1 µM
[7]
  Activity: 94.671%
[8]
  Time: 178.5 s
[9]
  Activity: 65.471%
Rhodopsin kinase GRK7
  IC50: > 1 µM
Mus musculus [10]
  Activity: 13
[11]
  Activity: 13.681 RPKM
[12]
  IC50: > 1 µM
Mus musculus [13]
  Activity: 288
[14]
  IC50: > 1 µM
[15]
  Time: 12.7 s
[16]
  IC50: > 1 µM
[17]
  IC50: > 1 µM
[18]
  half-life: 2.6 h
[19]
  Vd: 1.2 L/kg

## FC(F)(F)c1ccc(CNc2ccc(Cc3c[nH]c4ncc(Cl)cc34)cn2)cn1 [PEXIDARTINIB]
Mus musculus [20]
  Activity: >99%
[21]
  inhibition: Active
